From ChEMBL document CHEMBL1201862, “PubChem BioAssay data set” (2004)
Values belong to the compound of their own block, whether it stands above or below them. Calls of active or inactive are those of the source.

Columns and labels:
[1] = target: 5-hydroxytryptamine receptor 2A (Mus musculus, UniProt P35363); format: functional, cell-based;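 note: CHO-K1 cells with tagged receptor and beta-arrestin; agonist potency measured as compound-induced activation of the receptor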
Mu-type opioid receptor = Mu-type opioid receptor (Homo sapiens, UniProt P35372); format: functional, cell-based;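 note: U2OS cells with beta-arrestin recruitment to OPRM1 by beta-gal complementation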
[2] = T. cruzi intracellular amastigote growth inhibition, dose response, imaging, CA-I/72 strain, bovine embryo skeletal muscle, dry powder (AID 651885); format: functional, cell-based
Albumin = Albumin (Bos taurus, UniProt P02769); test: Counterscreen for inhibitors of T-cell receptor (TCR)-CD3 interaction: Fluorescence-based biochemical high throughput dose response assay to identify inhibitors of T-cell receptor (TCR)-CD3 interaction using a TAMRA-labeled BSA probe.; format: functional
[3] = target: T1, Methionyl-tRNA synthetase, putative (Trypanosoma brucei brucei, UniProt Q38C91); format: functional, Trypanosoma brucei brucei strain 927/4 GUTat10.1
[4] = target: T1, Methionyl-tRNA synthetase, putative; format: functional, Trypanosoma brucei brucei strain 927/4 GUTat10.1; remark: listed apart in the source
[5] = Counterscreen for inhibitors of Trypanosoma brucei methionyl tRNA synthetase (MetRS): Luminescence-based cell-based high throughput dose response assay to identify compounds that are cytotoxic to Jurkat human T lymphocyte cells.; format: functional
[6] = target: T2, Heat shock factor protein 1 (Mus musculus, UniProt P38532); test: HSF1 potentiators in luciferase reporter cells, confirmation, cell-based, NIH3T3, luminescence, dose retest (AID 435004); format: functional;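 note: stress induced by proteasome inhibitor MG132 added 30 min after compound; luciferase reporter driven by HSF1 response element in NIH3T3 cells; actives raise luminescence as potentiators of the MG132 stress response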
T2 sequence (P38532 whole entry): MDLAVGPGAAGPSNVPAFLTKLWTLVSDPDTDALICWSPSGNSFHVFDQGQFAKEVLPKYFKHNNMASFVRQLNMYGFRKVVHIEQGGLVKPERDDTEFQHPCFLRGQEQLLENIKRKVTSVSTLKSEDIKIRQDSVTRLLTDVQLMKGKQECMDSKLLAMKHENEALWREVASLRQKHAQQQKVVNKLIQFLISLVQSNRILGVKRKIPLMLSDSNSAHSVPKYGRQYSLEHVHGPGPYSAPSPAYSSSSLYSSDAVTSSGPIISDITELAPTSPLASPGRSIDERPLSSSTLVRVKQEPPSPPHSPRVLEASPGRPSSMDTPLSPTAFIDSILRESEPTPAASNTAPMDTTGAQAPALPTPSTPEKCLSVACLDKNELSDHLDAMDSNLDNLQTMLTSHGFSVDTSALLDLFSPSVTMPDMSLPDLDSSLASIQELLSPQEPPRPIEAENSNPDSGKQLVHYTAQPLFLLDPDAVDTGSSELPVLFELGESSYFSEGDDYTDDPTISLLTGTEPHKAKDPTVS

[7] = target: T3, Probable nicotinate-nucleotide adenylyltransferase (Staphylococcus aureus (strain N315), UniProt P65502); format: functional, Staphylococcus aureus subsp. aureus N315; settings: read-out: IC50_Mean;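 for IC50 Mean: confirmatory dose-response retesting of NadD inhibitor hits first found in an ultra-high-throughput screen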
[8] = target: T3, Probable nicotinate-nucleotide adenylyltransferase; format: functional, Staphylococcus aureus subsp. aureus N315

T1 sequence (Q38C91 whole entry): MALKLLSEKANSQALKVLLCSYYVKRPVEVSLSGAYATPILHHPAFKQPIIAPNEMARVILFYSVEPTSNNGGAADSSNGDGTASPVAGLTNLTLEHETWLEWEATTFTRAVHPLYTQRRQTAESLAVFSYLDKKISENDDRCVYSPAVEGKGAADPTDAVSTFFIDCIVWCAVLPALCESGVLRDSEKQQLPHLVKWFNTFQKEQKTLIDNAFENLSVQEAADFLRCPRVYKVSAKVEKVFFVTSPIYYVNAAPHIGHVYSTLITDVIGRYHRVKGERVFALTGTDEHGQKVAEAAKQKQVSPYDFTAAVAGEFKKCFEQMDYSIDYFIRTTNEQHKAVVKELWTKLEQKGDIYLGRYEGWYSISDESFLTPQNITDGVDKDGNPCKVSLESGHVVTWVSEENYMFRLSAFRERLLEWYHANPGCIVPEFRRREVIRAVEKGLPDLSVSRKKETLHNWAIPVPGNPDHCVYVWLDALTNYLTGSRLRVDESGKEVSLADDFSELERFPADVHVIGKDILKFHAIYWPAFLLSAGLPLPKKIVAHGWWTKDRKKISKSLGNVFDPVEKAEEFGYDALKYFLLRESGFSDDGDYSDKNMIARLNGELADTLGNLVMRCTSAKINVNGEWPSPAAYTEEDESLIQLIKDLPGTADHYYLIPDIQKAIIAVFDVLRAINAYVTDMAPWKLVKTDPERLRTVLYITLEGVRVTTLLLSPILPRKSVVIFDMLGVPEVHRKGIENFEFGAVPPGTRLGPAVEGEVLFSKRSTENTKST
Chain of 5-hydroxytryptamine receptor 2A (P35363 whole entry): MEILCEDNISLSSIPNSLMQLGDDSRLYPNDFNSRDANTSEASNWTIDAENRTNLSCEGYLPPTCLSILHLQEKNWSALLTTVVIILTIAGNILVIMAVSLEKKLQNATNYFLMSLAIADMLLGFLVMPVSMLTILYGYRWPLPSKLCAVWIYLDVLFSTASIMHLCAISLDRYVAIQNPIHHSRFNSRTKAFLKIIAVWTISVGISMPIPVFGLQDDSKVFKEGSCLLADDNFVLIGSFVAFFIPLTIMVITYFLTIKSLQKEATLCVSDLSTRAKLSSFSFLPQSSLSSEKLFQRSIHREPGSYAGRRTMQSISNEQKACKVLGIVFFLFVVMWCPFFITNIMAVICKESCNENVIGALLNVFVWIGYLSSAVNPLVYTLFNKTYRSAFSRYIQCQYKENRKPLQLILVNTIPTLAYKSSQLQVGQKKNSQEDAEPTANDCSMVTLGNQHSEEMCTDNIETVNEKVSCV
Chain of Mu-type opioid receptor (P35372 whole entry): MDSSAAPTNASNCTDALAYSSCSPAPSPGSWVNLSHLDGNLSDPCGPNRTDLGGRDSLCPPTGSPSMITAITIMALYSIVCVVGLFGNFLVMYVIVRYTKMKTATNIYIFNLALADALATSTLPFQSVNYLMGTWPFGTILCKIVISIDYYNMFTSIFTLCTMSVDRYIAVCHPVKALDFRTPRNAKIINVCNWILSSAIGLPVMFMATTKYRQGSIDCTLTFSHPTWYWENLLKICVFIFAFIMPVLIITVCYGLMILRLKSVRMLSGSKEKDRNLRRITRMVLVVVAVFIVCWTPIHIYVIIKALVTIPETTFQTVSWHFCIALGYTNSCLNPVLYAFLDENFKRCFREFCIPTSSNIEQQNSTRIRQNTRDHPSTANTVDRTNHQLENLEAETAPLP
Chain of Albumin (P02769 whole entry): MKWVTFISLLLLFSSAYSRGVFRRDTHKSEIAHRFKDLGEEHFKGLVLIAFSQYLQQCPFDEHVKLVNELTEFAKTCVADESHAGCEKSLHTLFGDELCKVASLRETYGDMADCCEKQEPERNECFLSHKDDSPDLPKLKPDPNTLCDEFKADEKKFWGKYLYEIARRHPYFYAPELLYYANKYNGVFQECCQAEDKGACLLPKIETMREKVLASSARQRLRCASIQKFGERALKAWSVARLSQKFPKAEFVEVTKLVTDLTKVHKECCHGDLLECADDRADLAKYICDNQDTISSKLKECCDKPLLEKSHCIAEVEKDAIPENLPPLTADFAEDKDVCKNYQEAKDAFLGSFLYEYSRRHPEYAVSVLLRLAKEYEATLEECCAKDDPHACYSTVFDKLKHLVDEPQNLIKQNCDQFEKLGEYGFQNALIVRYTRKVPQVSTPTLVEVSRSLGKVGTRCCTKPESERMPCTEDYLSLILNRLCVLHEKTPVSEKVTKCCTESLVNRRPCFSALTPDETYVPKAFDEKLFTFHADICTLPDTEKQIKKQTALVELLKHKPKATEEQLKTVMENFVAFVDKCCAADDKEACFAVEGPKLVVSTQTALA

Compound: C[C@@H]1CN([C@@H](C)CO)C(=O)c2cccc(NC(=O)c3ccncc3)c2O[C@H]1CN(C)Cc1ccc(C(=O)O)cc1
- IC50 [2]: 14.1 µM (inactive)

Compound: Cc1ccc2[nH]c3c(NCCCN4CCCC4=O)ncnc3c2c1
- IC50 [3]: 27.9 µM (inactive)
- IC50 [4]: 23.3 µM (inactive)
- IC50 [5]: 17.9 µM (inactive)

Continued, values first:

- EC50 [1]: 0.548 µM (active)
- EC50 (Mu-type opioid receptor): 92.5 µM (inactive)
Compound: CC(C)(C)C1CCC(OCC(O)CN2CCN(c3ccccn3)CC2)CC1 (stereo not given)

- IC50 (Albumin): > 94 µM (inactive)
Compound: CN=C(S)NNC(=O)c1cccn(Cc2ccc(Cl)c(Cl)c2)c1=O

- EC50 [6]: > 260 µM (inactive)
- IC50 [7]: 80 µM (inactive)
- IC50 [8]: 44.3 µM (active)
Compound: O=C(CNc1cccc2ccccc12)N/N=C/c1ccc([N+](=O)[O-])cc1
